Here are results for 18 molecules from US20080153758A1, “Compounds Which Inhibits Protein Prenylation E.G. Geranylgeransferse or Farnesyltransferase Inhibitors for Treating Parkinson's Disease” (priority 2004, published 2008).

In data set [1] the target is FTase (Homo sapiens, UniProt P49354+P49356). Particulars: read-out: FTase IC50; cited from earlier work.
The target in data set [2] is GGTase I (Homo sapiens, UniProt P49354+P53609). Particulars: read-out: GGTase I / PGGTase-I IC50; cited from earlier work.
In data set [3] the test system is SH-SY5Y cells. The data set is described as follows: MTT cell viability of 6-OHDA treated SH-SY5Y cells. The format is cell-based, human. As for the experimental part: To test whether inhibition of Ras farnesylation could protect SH-SY5Y cells against 6-OHDA induced oxidative stress, a Ras farnesyltransferase inhibitor, L-744,832, was used in 6-OHDA treated SH-SY5Y cells.
SH-SY5Y cells were plated in 24 well plates (ATGC, France) at the initial density of 3*10^5 cells/well. After 24 hours, cells were pretreated with L-744,832 for 6 hours at concentrations ranging from 20 nM to 40 μM. Then, 6-OHDA (Sigma) diluted in PBS was added to the wells at the concentration of 50 μM. After 17 h incubation, an MTT assay was conducted to reveal cell viability, which was measured as normalized optical densities values (treated cells/untreated control cells), where a value of 1 represents 100% neuronal survival and a value of 0.6 represents 60% survival.

For data set [4] the following is noted: cell-based assays (Law et al. 2000; Birkenkamp et al. 2004); cited from earlier work.
Data set [5] concerns mammary tumors. The note with it: cited from earlier work.

Each structure is given as a SMILES string.

As to `CC(=O)N(c1ccc(C)cc1)c1ccc(NC(=O)CCCCc2ccccc2)cc1C(=O)c1ccccc1`, the IC50 in data set [1] is 390 nM.
`CSCC[C@H](NC(=O)c1ccc(NC(=O)[C@@H](N)CS)cc1)C(=O)O` [FTI-232, Cys-4-ABA-Met]: the IC50 in data set [1] is 50 nM.
In the case of `CC(C)C[C@H](NC(=O)c1ccc(NC[C@@H](N)CS)cc1-c1ccccc1)C(=O)O` [GGTI-287], the IC50 in data set [2] is 5 nM.
For the molecule `O=[N+]([O-])[C@H]1C(c2ccccc2Br)CCN(Cc2cccnc2)[C@@H]1c1ccc(O)c(O)c1` (single isomer, unassigned; (+)) [(+)-4-(2-Bromophenyl)-2-(3,4-dihydroxyphenyl)-3-nitro-1-(3-pyridylmethyl)piperidine], the IC50 in data set [1] was 1.9 nM.
For `COC(=O)[C@H](CCSC)N(C(=O)c1ccccc1)C1CCN(C(=O)[C@@H](N)CS)CC1` [Methyl N-benzoyl-N-(piperidin-4-yl-N-(R)-cysteinyl)-(S) methioninate], in data set [1], the IC50 is 20 nM.
As for `CSCC[C@H](NC(=O)CN1C[C@H](N(C)C(=O)[C@H](N)CS)N=C(c2ccccc2)c2ccccc21)C(=O)O` [BZA-2B], in data set [1], the IC50 was 0.85 nM.
`CC[C@H](C)[C@@H](CO[C@@H](Cc1ccccc1)C(=O)N[C@@H](CCS(C)(=O)=O)C(=O)OC(C)C)NC[C@@H](N)CS` [L-744,832, (2S)-2-[[(2S)-2-[[(2S,3S)-2-[[(2R)-2-Amino-3-mercaptopropyl]amino]-3-methylpentyl]oxy]-1-oxo-3-phenylpropyl]amino]-4-(methylsulfonyl)-butanoic acid 1-methylethyl ester]: the “toxicity for SH-SY5Y cells” value in data set [3] (SH-SY5Y cells) is given as “non toxic”. For the same molecule, the survival ratio in data set [3] (SH-SY5Y, 6 h pretreatment with L-744,832 (20 nM to 40 μM), 6-OHDA 50 μM, 17 h, MTT, control 38%) is reported as 53%. The “protective effect against cell death induced by ROS (in words)” value in data set [3] (overnight treatment with 6-OHDA, FIG. 1) was “significant protective effect”. This molecule also had a protective effect in data set [3] (overnight treatment with 6-OHDA, SH-SY5Y, MTT) of 24%. Further, in data set [4], the reported active concentration is 25 to 60 µM. Also, in data set [5] (in vivo), the “p70s6k phosphorylation in mammary tumors” value is on record as “inhibits”. Further, in data set [5] (transgenic mice), the tumor regression entry was “induces tumor regression”.
With `COC(=O)[C@H](CCSC)NC(=O)c1ccc(NC[C@@H](N)CS)cc1-c1ccccc1` [FTI-277], the IC50 in data set [1] is 100 nM.
Consider `CSCCC(NC(=O)C(C=CC(C=CC(N)CS)C(C)C)Cc1ccccc1)C(=O)O` (stereo not drawn) [B956], for which the IC50 in data set [1] was 11 nM.
`Cn1cncc1C(N)(c1ccc(Cl)cc1)c1ccc2c(c1)c(-c1cccc(Cl)c1)cc(=O)n2C` (stereo not drawn) [R115777, 6-[Amino(4-chlorophenyl)-1-methyl-1H-imidazol-5-ylmethyl]-4-(3-chlorophenyl)-1-methyl-2(1H)-quinolinone]: the IC50 in data set [1] is 0.86 nM.
`C[C@H]([C@H](C/C=C/c1nc2ccccc2o1)c1ccc2c(c1)OCO2)N(Cc1ccc2ccccc2c1)C(=O)[C@H]1OC(C(=O)O)(C(=O)O)O[C@@H]1C(=O)O` [J-104,135]: the IC50 in data set [1] is 3.9 nM.
Turning to `CSCC[C@H](NC(=O)[C@@H](NC(=O)[C@@H](NC(=O)CCP(=O)(O)C/C=C(\C)CC/C=C(\C)CCC=C(C)C)C(C)C)C(C)C)C(=O)O` [BMS-186511], the IC50 in data set [1] is 10 nM.
As to `CSCC[C@H](NC(=O)c1ccc(NC[C@@H](N)CS)cc1)C(=O)O` [FTI-249], the IC50 in data set [1] is 50 nM.
Turning to `CC(C)C[C@H](NC(=O)CN1C[C@H](N(C)C(=O)[C@H](N)CS)N=C(c2ccccc2)c2ccccc21)C(=O)O` [BZA-4B], the IC50 in data set [1] is 1.3 nM.
Consider `C=C(CCC12OC(C(=O)O)C(O)(C(=O)O)C(C(=O)O)(O1)C(OC(=O)C=CC(C)CC(C)CC)C2O)C(OC(C)=O)C(C)Cc1ccccc1` [Zaragozic acid, L-erythro-L-Glycero-D-altro-7-trideculo-7,4-furanosonic acid, 2,7-anhydro-3,4-di-C-carboxy-8,9,10,12,13-pentadeoxy-10-methylene-12-(phenylmethyl)-,11-acetate 5-(4,6-dimethyl-2-octenoate), [5(2E,4S,6S),7S]], for which the IC50 in data set [1] was 50 nM.
For `CCC(C)C(COC(Cc1ccccc1)C(=O)NC(CCS(C)(=O)=O)C(=O)O)NCC(N)CS` [L-739,750], the IC50 in data set [1] was 1.8 nM.
With `CSCC[C@@H](NC(=O)[C@H]1Cc2ccccc2CN1C(=O)[C@@H](NCCc1c[nH]cn1)C(C)C)C(=O)O` (relative stereo) [BMS-193269, (R*)-N-[[1,2,3,4-Tetrahydro-2-[N-[2-(1H-imidazol-4-yl)ethyl]-L-valyl]-3-isoquinolinyl]carbonyl]-L-methionine], the IC50 in data set [1] was 0.79 nM.
Take `C[C@H]([C@H](C/C=C/c1nc2ccccc2o1)c1ccc2c(c1)OCO2)N(Cc1ccc2ccccc2c1)C(=O)[C@H]1OC(C(=O)O)(C(=O)O)O[C@@H]1C(=O)O` [J-104,134]: in data set [1], the IC50 was 5 nM.
